pEC50, pIC50: −log10 of the molar value. Values joined by “and” are separate entries in the source; they are usually repeats but may differ in a detail not shown here. Equal values may be shown once. “Also recorded” adds a separate entry of the source.
Molecular target: T1, Human recombinant HDAC6 (Homo sapiens, UniProt Q9UBN7)
T1 sequence (Q9UBN7 1-1215): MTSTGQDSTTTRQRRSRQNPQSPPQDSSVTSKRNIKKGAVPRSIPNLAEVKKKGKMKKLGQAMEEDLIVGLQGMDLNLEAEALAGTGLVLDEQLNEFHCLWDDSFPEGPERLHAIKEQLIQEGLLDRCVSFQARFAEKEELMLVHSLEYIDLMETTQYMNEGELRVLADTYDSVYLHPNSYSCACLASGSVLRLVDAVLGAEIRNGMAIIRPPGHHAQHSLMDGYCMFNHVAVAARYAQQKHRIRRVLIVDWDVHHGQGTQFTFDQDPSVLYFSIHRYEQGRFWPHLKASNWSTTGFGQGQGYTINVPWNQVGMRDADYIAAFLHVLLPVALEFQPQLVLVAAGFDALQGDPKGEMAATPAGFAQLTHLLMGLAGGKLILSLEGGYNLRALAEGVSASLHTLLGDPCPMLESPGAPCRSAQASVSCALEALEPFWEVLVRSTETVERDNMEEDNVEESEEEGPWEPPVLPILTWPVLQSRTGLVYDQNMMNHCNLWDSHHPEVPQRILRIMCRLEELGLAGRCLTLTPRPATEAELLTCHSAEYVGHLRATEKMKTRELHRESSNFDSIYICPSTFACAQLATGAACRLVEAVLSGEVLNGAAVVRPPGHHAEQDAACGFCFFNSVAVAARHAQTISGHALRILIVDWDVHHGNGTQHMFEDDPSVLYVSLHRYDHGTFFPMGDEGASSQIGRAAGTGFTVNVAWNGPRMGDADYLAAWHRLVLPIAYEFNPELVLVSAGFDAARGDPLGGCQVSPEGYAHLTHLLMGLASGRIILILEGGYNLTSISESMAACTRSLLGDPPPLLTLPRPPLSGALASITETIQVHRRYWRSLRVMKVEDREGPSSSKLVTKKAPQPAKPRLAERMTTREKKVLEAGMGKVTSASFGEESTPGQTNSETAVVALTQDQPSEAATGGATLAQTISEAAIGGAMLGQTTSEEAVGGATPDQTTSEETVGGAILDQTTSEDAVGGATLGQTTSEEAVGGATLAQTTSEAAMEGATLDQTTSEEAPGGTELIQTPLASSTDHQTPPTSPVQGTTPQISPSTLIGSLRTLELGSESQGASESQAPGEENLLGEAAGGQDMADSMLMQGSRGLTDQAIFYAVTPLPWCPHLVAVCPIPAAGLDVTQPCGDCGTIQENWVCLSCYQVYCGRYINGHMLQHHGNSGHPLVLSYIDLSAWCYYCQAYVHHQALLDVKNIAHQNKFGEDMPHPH
Assay: HDAC isomer assay, Fluor-de-Lys, HDAC6
Assay type: biochemical
Conditions: for pEC50: Example 4, FIGS. 5, 6 and 8, read-out: EC50 against HDAC6; for greater potency for HDAC6 as compared to HDAC1: FIG. 14; for selectivity for HDAC6 as compared to pan-HDACs (and HDAC1, HDAC3), in words: FIGS. 1, 7, 8, 18
Description: The HDAC isomer (HDAC1, 3, and 6) assays were performed as follows:
Materials: Human recombinant HDAC isomer (HDAC1, HDAC3, and HDAC6); Fluor-de-Lys HDAC substrates; 360 nm excitation 460 nm emission Plate Reader; Disposable pipettes; Pipet-aid; Pipette tips; Micro-pipetter; DMSO; Sterile micro-tubes and conical tubes; and Micro-centrifuge.
Test compounds and control preparation: All test compounds' stock solutions were made in 100% DMSO. Test compound dilutions were made in HDAC Assay buffer with a final concentration of DMSO less than or equal to 1%. Vehicle control was HDAC Assay buffer with 1% DMSO.
The reagents for the assay were prepared as follows:
1. All kit components were defrosted and these, and all dilutions described below, were kept on ice until use.
2. A sufficient amount of HDAC source diluted in Assay Buffer (BML-KI143) was prepared to provide for the assays that were performed (# of wells×15 μl). A 30-fold dilution of the HeLa Extract means that 15p L contains 0.5 μl of the undiluted Extract, an appropriate amount to use per well.
3. Dilution(s) of SAHA and/or Test Inhibitors were prepared in Assay Buffer (BML-KI143). Since 10 μl were used per well, and since the final volume of the HDAC reaction was 50p, these inhibitor dilutions were 5× their final concentration.
4. Dilution(s) of the Fluor de Lys® Substrate (BML-KI104; 50 mM) were prepared in Assay Buffer (BML-KI143) that were 2× the desired final concentration(s). For inhibitor screening, substrate concentrations at or below the Km are recommended. Twenty-five μL were used per well. […] Rapid mixing and dilution into room temperature buffer helped to prevent precipitation at high substrate concentration.
5. Shortly before use (<30 min.), sufficient Fluor de Lys® Developer was prepared for the assays to be performed (50 μl per well). First, the Fluor de Lys® Developer Concentrate was diluted 20-fold (e.g. 50 μl plus 950 μl Assay Buffer) in cold Assay Buffer (BML-K1143). […] The addition of SAHA to the Developer insures that HDAC activity stops when the Developer is added. The Developer was kept on ice until use.
1. Assay buffer, diluted trichostatin A or test inhibitor was added to appropriate wells of the microtiter plate.
2. Diluted HeLa extract or other HDAC sample was added to all wells except those that are to be “No Enzyme Controls.”
3. Diluted Fluor de Lys® Substrate and the samples in the microtiter plate were allowed to equilibrate to assay temperature (e.g. 25 or 37° C.).
4. HDAC reactions were initiated by adding diluted substrate (25 μl) to each well and mixing thoroughly.
5. HDAC reactions were allowed to proceed for desired length of time and then stop them by addition of Fluor de Lys® Developer (50 μl). The plates were incubated at room temperature (25° C.) for 10-15 min.
6. Samples were read in a microtiter-plate reading fluorimeter capable of excitation at a wavelength in the range 350-380 nm and detection of emitted light in the range 440-460 nm.

Structure (SMILES): O=C(CCCCCCC(=O)NC1CCC(=O)NC1=O)NO (stereo not shown) [SP-2-59, N^1-(2,6-dioxopiperidin-3-yl)-N^8-hydroxyoctanediamide]
- pEC50: 7.28 and 7.17
- greater potency for HDAC6 as compared to HDAC1: 83 fold
- selectivity for HDAC6 as compared to pan-HDACs (and HDAC1, HDAC3), in words: substantial preference and selectivity for HDAC6

Structure (SMILES): O=C(CCCCCCC(=O)Nc1cccc2c1CN(C1CCC(=O)NC1=O)C2=O)NO (stereo not shown) [SP-2-93, N^1-(2-(2,6-dioxopiperidin-3-yl)-1-oxoisoindolin-4-yl)-N^8-hydroxyoctanediamide]
- pEC50: 8.21
- more selective for HDAC6 as compared to HDAC1 (Example 6, FIG. 18): about 26 times
- more selective for HDAC6 as compared to HDAC3 (Example 6, FIG. 18): about 51 times
- pIC50 (Example 6, FIG. 18, 2 mg/mL formulation in 5% DMSO/40% PEG 400/55% PBS, read-out: IC50 against HDAC6 protein): 7.22
- greater potency for HDAC6 as compared to HDAC1: 258 fold
- selectivity for HDAC6 as compared to pan-HDACs (and HDAC1, HDAC3), in words: substantial preference and selectivity for HDAC6; also recorded: highly selective for HDAC 6
- selectivity for HDAC6 as compared to pan-HDACs (and HDAC1, HDAC3), in words (listed as N^1-(2-(2,6-dioxopiperidin-3-yl)-1-oxoisoindolin-4-yl)-N^8-hydroxyoctanediamide): surprising selective for HDAC6
